In US20210395254A1, “NEW TETRAHYDROPYRIMIDODIAZEPIN AND TETRAHYDROPYRIDODIAZEPIN COMPOUNDS FOR TREATING PAIN AND PAIN RELATED CONDITIONS” (ESTEVE PHARMACEUTICALS, S.A., priority 2018, published 2021) one finds Ki data, which are given here for 15 molecules.

For test [1], the target named is human α2δ-1 subunit of Cav2.2 calcium channel (Homo sapiens, UniProt P54289). Put plainly: Binding assay to human α2δ-1 subunit of Cav2.2 calcium channel ([3H]-Gabapentin). The note with it: [3H]-Gabapentin 15 nM, human α2δ-1 enriched membranes. The procedure:
Binding assay to human α2δ-1 subunit of Cav2.2 calcium channel. Human a26-1 enriched membranes (2.5 μg) were incubated with 15 nM of radiolabeled [3H]-Gabapentin in assay buffer containing Hepes-KOH 10 mM, pH 7.4. NSB (non specific binding) was measured by adding 10 μM pregabalin. The binding of the test compound was measured at either one concentration (% inhibition at 1 or 10 μM) or five different concentrations to determine affinity values (Ki). After 60 min incubation at 27° C., binding reaction was terminated by filtering through Multiscreen GF/C (Millipore) presoaked in 0.5% polyethyleneimine in Vacuum Manifold Station, followed by 3 washes with ice-cold filtration buffer containing 50 mM Tris-HCl, pH 7.4. Filter plates were dried at 60° C. for 1 hour and 30 μl of scintillation cocktail were added to each well before radioactivity reading. Readings were performed in a Trilux 1450 Microbeta radioactive counter (Perkin Elmer).

Test [2] has as its target human norepinephrine transporter (NET) (Homo sapiens, UniProt P23975). Put plainly: Binding assay to human norepinephrine transporter (NET) ([3H]-Nisoxetin). The note with it: [3H]-Nisoxetin 5 nM, human NET enriched membranes. The procedure:
Binding assay to human norepinephrine transporter (NET).
Human norepinephrine transporter (NET) enriched membranes ([…]) were incubated with 5 nM of radiolabeled [3H]-Nisoxetin in assay buffer containing 50mM Tris-HCl, 120mM NaCl, 5mM KCI, pH 7.4. NSB (non specific binding) was measured by adding […] of desipramine. The binding of the test compound was measured at either one concentration (% inhibition at 1 or 10 μM) or five different concentrations to determine affinity values (Ki). After 60 min incubation at 4° C., binding reaction was terminated by filtering through Multiscreen GF/C (Millipore) presoaked in 0.5% polyethyleneimine in Vacuum Manifold Station, followed by 3 washes with ice-cold filtration buffer containing 50mM Tris-HCl, 0.9% NaCl, pH 7.4. Filter plates were dried at 60° C. for 1 hour and 30 µl of scintillation cocktail were added to each well before radioactivity reading. Readings were performed in a Trilux 1450 Microbeta radioactive counter (Perkin Elmer).

Sequence of human α2δ-1 subunit of Cav2.2 calcium channel (P54289 25-1103): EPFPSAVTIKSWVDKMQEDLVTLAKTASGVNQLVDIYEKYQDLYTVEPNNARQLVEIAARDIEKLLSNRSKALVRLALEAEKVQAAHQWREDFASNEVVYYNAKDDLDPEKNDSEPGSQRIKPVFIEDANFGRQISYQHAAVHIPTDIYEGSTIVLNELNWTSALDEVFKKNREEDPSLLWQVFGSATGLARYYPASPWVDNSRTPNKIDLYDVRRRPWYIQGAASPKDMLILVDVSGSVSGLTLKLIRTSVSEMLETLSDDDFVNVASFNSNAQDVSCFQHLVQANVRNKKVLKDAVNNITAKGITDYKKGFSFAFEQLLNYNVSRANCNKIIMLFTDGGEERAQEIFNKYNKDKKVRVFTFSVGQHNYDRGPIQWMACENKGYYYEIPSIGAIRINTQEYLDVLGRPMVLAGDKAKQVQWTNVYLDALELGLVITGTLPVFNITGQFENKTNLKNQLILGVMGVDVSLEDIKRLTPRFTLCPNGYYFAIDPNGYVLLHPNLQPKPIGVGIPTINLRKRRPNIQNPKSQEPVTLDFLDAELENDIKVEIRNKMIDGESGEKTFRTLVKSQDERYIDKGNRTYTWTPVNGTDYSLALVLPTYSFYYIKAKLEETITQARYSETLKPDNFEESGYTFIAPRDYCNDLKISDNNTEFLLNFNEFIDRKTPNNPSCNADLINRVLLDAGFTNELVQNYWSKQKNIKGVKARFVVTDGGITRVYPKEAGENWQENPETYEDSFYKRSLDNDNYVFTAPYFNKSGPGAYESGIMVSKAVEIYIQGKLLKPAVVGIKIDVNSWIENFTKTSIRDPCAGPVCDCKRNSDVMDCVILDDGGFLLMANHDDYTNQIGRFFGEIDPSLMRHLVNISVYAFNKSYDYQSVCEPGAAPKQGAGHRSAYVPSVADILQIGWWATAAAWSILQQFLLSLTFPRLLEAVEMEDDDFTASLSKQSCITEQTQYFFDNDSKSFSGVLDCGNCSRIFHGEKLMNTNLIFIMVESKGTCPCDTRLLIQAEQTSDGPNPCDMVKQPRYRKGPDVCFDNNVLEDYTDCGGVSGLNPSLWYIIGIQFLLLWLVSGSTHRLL
Sequence of human norepinephrine transporter (NET) (P23975 whole entry): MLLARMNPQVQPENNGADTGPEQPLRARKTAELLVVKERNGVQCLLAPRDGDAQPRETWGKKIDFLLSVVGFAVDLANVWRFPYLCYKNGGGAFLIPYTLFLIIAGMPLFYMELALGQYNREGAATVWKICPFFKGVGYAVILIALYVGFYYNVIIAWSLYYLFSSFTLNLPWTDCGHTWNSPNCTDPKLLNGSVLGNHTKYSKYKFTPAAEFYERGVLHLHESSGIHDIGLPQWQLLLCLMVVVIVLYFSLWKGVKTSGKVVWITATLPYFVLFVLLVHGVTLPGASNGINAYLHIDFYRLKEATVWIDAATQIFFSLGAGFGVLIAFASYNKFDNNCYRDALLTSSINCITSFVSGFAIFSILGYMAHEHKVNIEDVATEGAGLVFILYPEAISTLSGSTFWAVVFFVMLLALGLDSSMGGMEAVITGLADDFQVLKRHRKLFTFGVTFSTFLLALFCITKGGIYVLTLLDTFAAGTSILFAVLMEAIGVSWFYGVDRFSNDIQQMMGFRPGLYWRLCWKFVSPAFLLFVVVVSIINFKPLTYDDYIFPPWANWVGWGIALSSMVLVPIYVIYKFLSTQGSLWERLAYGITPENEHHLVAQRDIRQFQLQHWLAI

Turning to `CNCC[C@H](Oc1ccc(CN2CCN(C)c3ccncc3C2=O)c(C)c1)c1ccccc1` [Example 1, (S)-1-Methyl-4-(2-methyl-4-(3-(methylamino)-1-phenylpropoxy)benzyl) -1,2,3,4-tetrahydro-5H-pyrido[4,3-e][1,4]cliazepin-5-one], the inhibitory constant (Ki) in test [1] and in test [2] was 100 to 500 nM in each case.

For the molecule `CNCC[C@H](Oc1ccc(CN2CCN(C)c3nc(OC)ncc3C2=O)c(C)c1)c1ccccc1` [Example 2, (S)-2-Methoxy-9-methyl-6-(2-methyl-4-(3-(methylamino)-1-phenylpropoxy)benzyl)-6,7,8,9-tetrahydro-5H-pyrimido[4,5-e][1,4]diazepin-5-one], the Ki in test [1] and in test [2] was below 100 nM in each case.

Consider `CNCC[C@H](Oc1ccc(CN2CCN(C)c3ncncc3C2=O)c(C)c1)c1ccccc1` [Example 3, (S)-9-Methyl-6-(2-methyl-4-(3-(methylamino)-1-phenylpropoxy)benzyl)-6,7,8,9-tetrahydro-5H-pyrimido[4,5-e][1,4]diazepin-5-one], for which the Ki in test [1] and in test [2] was below 100 nM each time.

As for `CNCC[C@H](Oc1ccc(CN2CCN(C)c3nc(N)ncc3C2=O)c(Cl)c1)c1ccccc1` [Example 4, (S)-2-Amino-6-(2-chloro-4-(3-(methylamino)-1-phenylpropoxy)benzyl)-9-methyl-6,7,8,9-tetrahydro-5H-pyrimido[4,5-e][1,4]diazepin-5-one], the Ki in test [1] and in test [2] was below 100 nM in each case.

In the case of `CCNc1ncc2c(n1)N(C)CCN(Cc1ccc(O[C@@H](CCNC)c3ccccc3)cc1Cl)C2=O` [Example 5, (S)-6-(2-Chloro-4-(3-(methylamino)-1-phenylpropoxy)benzyl)-2-(ethylamino)-9-methyl-6,7,8,9-tetrahydro-5H-pyrimido[4,5-e][1,4]diazepin-5-one], the Ki in test [1] is below 100 nM; in test [2], 100 to 500 nM.

`CCNc1ncc2c(n1)N(C)CCN(Cc1ncc(O[C@@H](CCNC)c3cccc(F)c3)cc1F)C2=O` [Example 6, (S)-2-(Ethylamino)-6-((3-fluoro-5-(1-(3-fluorophenyl)-3-(methylamino)propoxy)pyridin-2-yl)methyl)-9-methyl-6,7,8,9-tetrahydro-5H-pyrimido[4,5-e][1,4]diazepin-5-one]: the Ki in test [1] is below 100 nM; in test [2], 100 to 500 nM.

With `CNCC[C@H](Oc1cnc(CN2CCN(C)c3nc(N)ncc3C2=O)c(F)c1)c1cccc(F)c1` [Example 7, (S)-2-Amino-6-((3-fluoro-5-(1-(3-fluorophenyl)-3-(methylamino)propoxy)pyridin-2-yl)methyl)-9-methyl-6,7,8,9-tetrahydro-5H-pyrimido[4,5-e][1,4]diazepin-5-one], the Ki in test [1] and in test [2] was below 100 nM throughout.

With `CNCC[C@H](Oc1ccc(CN2CCN(C)c3ccncc3C2=O)c(F)c1)c1ccccc1` [Example 8, (S)-4-(2-Fluoro-4-(3-(methylamino)-1-phenylpropoxy)benzyI)-1-methyl-1,2,3,4-tetrahydro-5H-pyrido[4,3-e][1,4]diazepin-5-one], the figures for the inhibition constant Ki in test [1] and in test [2] were below 100 nM and 100 to 500 nM, respectively.

For the molecule `CNCC[C@H](Oc1ccc(CN2CCN(C)c3nc(OC)ncc3C2=O)c(F)c1)c1ccccc1` [Example 9, (S)-6-(2-Fluoro-4-(3-(methylamino)-1-phenylpropoxy)benzyl)-2-methoxy-9-methyl-6,7,8,9-tetrahydro-5H-pyrimido[4,5-e][1,4]diazepin-5-one], the values for the Ki in test [1] and in test [2] were below 100 nM and 100 to 500 nM, respectively.

With `CNCC[C@H](Oc1ccc(CN2CCN(C)c3ncncc3C2=O)c(F)c1)c1ccccc1` [Example 10, (S)-6-(2-Fluoro-4-(3-(methylamino)-1-phenylpropoxy)benzyl)-9-methyl-6,7,8,9-tetrahydro-5H-pyrimido[4,5-e][1,4]diazepin-5-one], the Ki in test [1] and in test [2] was below 100 nM in each case.

For `CNCC[C@H](Oc1ccc(CN2CCN(C)c3nc(N)ncc3C2=O)c(F)c1)c1ccccc1` [Example 11, (S)-2-Amino-6-(2-fluoro-4-(3-(methylamino)-1-phenylpropoxy)benzyl)-9-methyl-6,7,8,9-tetrahydro-5H-pyrimido[4,5-e][1,4]diazepin-5-one], the Ki in test [1] was below 100 nM; in test [2], 100 to 500 nM.

`CNCC[C@H](Oc1ccc(CN2CCN(C)c3cc(OC)ncc3C2=O)c(F)c1)c1ccccc1` [Example 12, (S)-4-(2-Fluoro-4-(3-(methylamino)-1-phenylpropoxy)benzyl)-8-methoxy-1-methyl-1,2,3,4-tetrahydro-5H-pyrido[4,3-e][1,4]diazepin-5-one]: the Ki was below 100 nM in test [1] and 100 to 500 nM in test [2].

Consider `CCNc1ncc2c(n1)N(C)CCN(Cc1ccc(O[C@H](CCNC)c3cccc(F)c3)cc1F)C2=O` [Example 13, (R)-2-(Ethylamino)-6-(2-fluoro-4-(1-(3-fluorophenyl)-3-(methylamino)propoxy)benzyl)-9-methyl-6,7,8,9-tetrahydro-5H-pyrimido[4,5-e][1,4]diazepin-5-one], for which the Ki in test [1] is at least 3000 nM; in test [2], 500 to 1000 nM.

On to `CCNc1ncc2c(n1)N(C)CCN(Cc1ccc(O[C@@H](CCNC)c3cccc(F)c3)cc1F)C2=O` [Example 14, (S)-2-(Ethylamino)-6-(2-fluoro-4-(1-(3-fluorophenyl)-3-(methylamino)propoxy)benzyl)-9-methyl-6,7,8,9-tetrahydro-5H-pyrimido[4,5-e][1,4]diazepin-5-one], for which the figures for the Ki in test [1] and in test [2] were below 100 nM and 100 to 500 nM, respectively.

As to `CNCC[C@H](Oc1cnc(CN2CCN(C)c3cc(OC)ncc3C2=O)c(F)c1)c1cccs1` [Example 15, (S)-4-((3-Fluoro-5-(3-(methylamino)-1-(thiophen-2-yl)propoxy)pyridin-2-yl)methyl)-8-methoxy-1-methyl-1,2,3,4-tetrahydro-5H-pyrido[4,3-e][1,4]diazepi n-5-one.], the Ki in test [1] and in test [2] was below 100 nM in each case.

As usually defined, the Ki is the dissociation constant of the complex between target and ligand, obtained from inhibition or displacement.
